These results are taken from PubChem BioAssay (NCI).

Common to all, as to assay: DTP human tumour cell line panel, 48 h
Assay [1] relates to PC-3 prostate.
Assay [2] has as its system NCI-H226 lung.
Assay [3] deals with ACHN renal.
Assay [4] relates to KM12 colon.
Assay [5] deals with DU-145 prostate.
Assay [6] concerns UACC-62 melanoma.
The subject of assay [7] is OVCAR-3 ovarian.
Assay [8] concerns SN12C renal.
Assay [9] relates to MCF7 breast.
Assay [10] concerns SW-620 colon.

“And” between values parts separate entries of the source, which are not always exact repeats. Equal values may be shown once.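 Assay format: 96-well plates, 48-hour exposure. At the GI50, growth is halved. TGI: total growth inhibition.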

Take `CN(C)CCCN(c1nc(C(Cl)(Cl)Cl)ns1)c1nc(C(Cl)(Cl)Cl)ns1`: the GI50 in assay [1] was 1.94 µM; in [2] it was 1.72 µM; in assay [3], 1.77 µM; in assay [4], 1.8 µM; in assay [5] it was 2.75 µM; in [6] it was 2.1 µM. Besides, the GI50 in [7] was 2.01 µM; in [8] it was 3.42 µM; in [9], 1.9 µM; in assay [10], 1.67 µM. The TGI in assay [1] worked out at 5.14 µM; in [2], 3.42 µM; in [3] it was 3.53 µM; in assay [4] it was 3.44 µM; in assay [5], 6.79 µM; in assay [6], 4.91 µM. Besides, the TGI in assay [7] came to 4.09 µM; in [8], 11.6 µM; in assay [9], 3.62 µM; in [10], 3.18 µM.
With `Cn1ncc2c(/N=C/c3cccs3)[nH]c(=S)nc21`, the GI50 in assay [1] is 40.7 µM; in assay [2], 10.5 µM; in assay [3], 37.6 µM; in [4], 28.8 µM; in assay [5] it was 25.6 µM; in assay [6], 19.6 µM. The GI50 in assay [7] is 29.2 µM; in assay [8], more than 36 µM; in [9], 27.4 µM; in assay [10], 31.5 µM. Also, the TGI is more than 100 µM in assay [1]; 40.9 µM in [2]; more than 80 µM in [3]; more than 59.4 µM in [4]; more than 70.5 µM in assay [5]; 52.4 µM in assay [6]. Also, the TGI was more than 76.7 µM in assay [7], more than 69.2 µM in [8], more than 80.3 µM in [9] and more than 100 µM in assay [10].
Turning to `Cc1c2c(nn1C(=O)c1nn(-c3ccc(Cl)cc3)cc1O)-c1ccccc1CC2`, the GI50 in assay [1] was 0.0373 µM; in assay [2], 0.0968 µM; in [3], 0.0456 µM; in assay [4] it was 0.0632 µM; in assay [5] it was 0.0497 µM; in [6], 0.0507 µM. The GI50 was 0.185 µM in assay [7], 0.0403 µM in [8], 0.115 µM in assay [9] and 0.289 µM in [10]. Also, the TGI was more than 100 µM in [1]; more than 25.7 µM in assay [2]; more than 100 µM in [3]; more than 100 µM in [4]; more than 100 µM in assay [5]; 1.55 µM in assay [7]. The TGI in [8], in assay [9] and in assay [10] was more than 100 µM throughout.
On to `CN1CCC[C@@H]1CCO[C@](C)(c1ccccc1)c1ccc(Cl)cc1`, for which the GI50 in assay [1] is 4.58 µM; in assay [2] it was 10.5 µM; in assay [3], 6.31 µM; in assay [4] it was 7.04 µM; in assay [5] it was 12.6 µM; in assay [6], 1.81 µM. For the same compound, the GI50 in [7] is 7.96 µM; in assay [8], 4.54 µM; in assay [9] it was 2.98 µM; in [10], 5.5 µM. Further, the TGI in assay [1] worked out at 17 µM; in assay [2], 25.3 µM; in assay [3], 19 µM; in [4], 20.2 µM; in assay [5] it was 25.2 µM; in [6], 3.99 µM. Further, the TGI is 20.8 µM in assay [7], 18.7 µM in [8], 11.7 µM in [9] and 18.8 µM in [10].
On to `ClCc1ccc(-c2ccc(Cn3cnc4c(Cl)nc(Cl)nc43)cc2)cc1`, for which the GI50 in [1] was 2.21 µM; in assay [2], 8.85 µM; in [3] it was 2.05 µM; in assay [4], 2.12 µM; in assay [5], 1.58 µM; in [6], 2.49 µM. Moreover, the GI50 in assay [7] is 1.65 µM; in assay [8], 2.72 µM; in [9], 1.69 µM; in assay [10] it was 1.83 µM. The TGI in [1] came to 5.28 µM; in assay [2], 28.5 µM; in assay [3] it was 4.25 µM; in [4], 4.4 µM; in assay [5], 2.94 µM; in [6], 6.35 µM. The TGI in assay [7] is 3.05 µM; in [8], 8.93 µM; in [9], 3.51 µM; in [10] it was 3.41 µM.
In the case of `Nc1ncnc2c1nc(-c1ccccc1)n2C1OC(CO)C(O)C1O` (stereo unspecified), the TGI in [1], in assay [2], in assay [3], in assay [4], in assay [5] and in assay [6] was more than 100 µM each time. Besides, the TGI in assay [7], in [8], in assay [9] and in [10] was more than 100 µM in each case.
For `O=C(O)CC(Nc1ccccc1)C(=O)O` (stereo unspecified), the TGI in [1], in [2], in assay [3], in [4], in assay [5] and in assay [6] was more than 100 µM in each case. Besides, the TGI in assay [7], in assay [8], in [9] and in [10] was more than 100 µM in each case.
With `C=C1C(=O)O[C@H]2[C@H]1CC/C(Cn1cc(Cn3ccc4ccccc43)nn1)=C\CC[C@@]1(C)O[C@@H]21`, the GI50 was 1.47 µM in assay [1]; 1.53 µM in [2]; 1.18 µM in [3]; 4.21 µM in assay [4]; 1.64 µM in assay [5]; 1.44 µM in assay [6]. In addition, the GI50 in assay [7] was 1.62 µM; in assay [8] it was 1.65 µM; in assay [9], 1.3 µM; in [10] it was 1.42 µM. Moreover, the TGI in assay [1] came to 2.98 µM; in [2] it was 3.06 µM; in [3] it was 2.43 µM; in [4], 15.2 µM; in assay [5] it was 3.01 µM; in [6] it was 2.89 µM. Further, the TGI in assay [7] was 3.01 µM; in assay [8], 3.46 µM; in assay [9], 3.18 µM; in [10], 3.01 µM.
In the case of `CCOC(=O)/C(=C/c1ccc([N+](=O)[O-])cc1)C(=O)c1ccccc1`, the GI50 in assay [1] was 2.46 µM; in assay [2], 2.57 µM; in assay [3] it was 2.03 µM; in assay [4], 2.16 µM; in [5], 2.08 µM; in assay [6], 1.93 µM. In addition, the GI50 in assay [7] is 2.56 µM; in assay [8] it was 1.76 µM; in assay [9] it was 2.32 µM; in assay [10] it was 2.14 µM. Also, the TGI came to 6.11 µM in [1]; 6.45 µM in assay [2]; 4.35 µM in assay [3]; 4.65 µM in [4]; 4.27 µM in [5]; 4.28 µM in assay [6]. For the same compound, the TGI in [7] worked out at 5.96 µM; in [8], 3.76 µM; in assay [9] it was 8.94 µM; in [10] it was 4.84 µM.
Regarding `CCCc1cc2cc(-n3nc(C)c4c3CC(C)(C)CC4=O)cc(NC3CCC(O)CC3)c2c(=O)[nH]1` (stereo unspecified), the GI50 is 0.423 µM in [1]; 5.36 µM in assay [2]; 0.0712 µM in assay [3]; 0.0986 µM in [4]; 0.0527 µM in assay [5]; 0.189 µM in [6]. For the same compound, the GI50 in assay [7] was 0.58 µM; in assay [8], 0.0683 µM; in [9], 0.0516 µM; in assay [10], 0.0578 µM. Further, the TGI in [1] was more than 100 µM; in assay [2], more than 100 µM; in [3], more than 100 µM; in [4] it was more than 100 µM; in assay [5] it was more than 100 µM; in [6] it was 5.39 µM. In addition, the TGI in assay [7], in assay [8], in assay [9] and in assay [10] was more than 100 µM each time.
For the compound `COc1ccc2c(c1)CCc1c(-c3noc4c3CCc3cc(OC)ccc3-4)noc1-2`, the TGI in assay [1], in assay [2], in assay [3], in assay [4], in assay [5] and in assay [6] was more than 100 µM in each case. For the same compound, the TGI in assay [7], in [8], in [9] and in [10] was more than 100 µM each time.
`COC(=O)C(C)NP(=O)(OCc1ccc(Cn2cnc3c(=O)[nH]c(N)nc32)cc1)Oc1ccccc1` (stereo unspecified): the GI50 in [1], in [2], in assay [3], in assay [4], in assay [5] and in [6] was more than 100 µM in each case. Also, the GI50 in assay [7], in [8], in assay [9] and in assay [10] was more than 100 µM each time. Further, the TGI in assay [1], in assay [2], in [3], in assay [4], in [5] and in assay [6] was more than 100 µM in each case. In addition, the TGI in assay [7], in assay [8], in assay [9] and in assay [10] was more than 100 µM each time.
Consider `CN[C@]12CC3(C=CC(=O)C=C3)O[C@@]1(Cc1ccc(OC)cc1)N(C)C(=O)N2`, for which the GI50 in assay [1] is 0.695 µM; in [2], 3.46 µM; in [3], 1.67 µM; in assay [4] it was 1.69 µM; in [5], 4.3 µM; in assay [6] it was 1.46 µM. Also, the GI50 in assay [7] was 0.793 µM; in [8] it was 1.7 µM; in [9] it was 0.778 µM; in assay [10] it was 2.1 µM. The TGI in [1] came out at 4.31 µM; in [2], 15.9 µM; in [3] it was 4 µM; in [4], 3.54 µM; in [5], 14.9 µM; in [6] it was 3.34 µM. Besides, the TGI is 4.14 µM in assay [7], 7.13 µM in [8], 15.1 µM in assay [9] and 6.99 µM in [10].
Regarding `CCOC(=O)c1c(C)nc2ccc(Cl)cc2c1-c1ccccc1`, the GI50 in assay [1] was 20 µM; in assay [2], 19.2 µM; in assay [3] it was 17.1 µM; in [4], 19.8 µM; in assay [5], 31.6 µM; in [6] it was 10.7 µM. Besides, the GI50 in assay [7] was 19 µM; in assay [8] it was 16.8 µM; in assay [9], 24 µM; in assay [10], 19.2 µM. The TGI is 65.9 µM in [1]; 39.7 µM in assay [2]; 35 µM in assay [3]; 56.8 µM in [4]; more than 100 µM in assay [5]; 26.6 µM in assay [6]. For the same compound, the TGI was 43.1 µM in assay [7], 32.7 µM in assay [8], 70.4 µM in assay [9] and 47 µM in assay [10].
In the case of `COc1cc(/C=C2\CN(C)C/C(=C\c3cc(OC)c(OC)c(OC)c3)C2=O)cc(OC)c1OC`, the GI50 is 1.32 µM in assay [1]; 0.239 µM in [2]; 0.2 µM in assay [3]; 0.195 µM in [4]; 0.355 µM in [5]; 0.186 µM in [6]. Besides, the GI50 is 0.328 µM in assay [7], 0.267 µM in [8], 0.317 µM in [9] and 0.347 µM in assay [10]. Moreover, the TGI in assay [1] was 4.52 µM; in assay [2] it was 0.588 µM; in assay [3], 0.387 µM; in assay [4] it was 0.394 µM; in assay [5], 1.22 µM; in assay [6] it was 0.383 µM. Besides, the TGI in assay [7] was 0.892 µM; in assay [8], 0.833 µM; in assay [9] it was 1.83 µM; in assay [10], 1.42 µM.
Take `O=[N+]([O-])c1cc(CCl)ccc1CCl`: the TGI in [1] was found to be 3.08 µM; in [2], 11 µM; in [3], 3.09 µM; in [4], 3.25 µM; in assay [5], 2.99 µM; in assay [6], 11.4 µM. Also, the total growth inhibition concentration (TGI) in assay [7] is 3.27 µM; in assay [8], 2.97 µM; in assay [9], 3.28 µM; in [10], 4.54 µM.
Turning to `CNNCc1ccc(C(=O)NC(C)C)cc1`, the TGI in assay [1] is more than 500 µM; in assay [2], more than 500 µM; in assay [3], more than 500 µM; in assay [4], more than 500 µM; in assay [5], more than 500 µM; in [6], 393 µM and > 500 µM. Moreover, the TGI is more than 472 µM in [7], more than 500 µM in assay [8], more than 500 µM in [9] and more than 500 µM in [10]. In addition, the GI50 in assay [2] and in assay [6] was more than 500 µM in each case.
